From ChEMBL document CHEMBL1201862, “PubChem BioAssay data set” (2004)
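The compound was tested at five concentrations on cells cultured in 96-well plates, with a 48-hour exposure period. Here, GI50 denotes the concentration required for 50% inhibition of growth.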 Activity calls are given as the source filed them. Cut-off read from the data, not from the text of the source: active = GI50 up to about 1.1 µM and inactive = higher.

Experiments:
Test in all cases: growth of human tumour cells (NCI), 48 h
[1] = system: 786-0
[2] = system: A549
[3] = system: BT-549
[4] = system: CAKI-1
[5] = system: CCRF-CEM
[6] = system: HOP-92
[7] = system: Hs-578T
[8] = system: IGROV-1
[9] = system: KM12
[10] = system: NCI-H226
[11] = system: NCI-H23
[12] = system: NCI/ADR-RES
[13] = system: OVCAR-4
[14] = system: RPMI-8226
[15] = system: SF-268
[16] = system: SNB-75
[17] = system: SR
[18] = system: UACC-257
[19] = system: UACC-62
[20] = system: UO-31

Compound	GI50 [1]	GI50 [2]	GI50 [3]	GI50 [4]	GI50 [5]	GI50 [6]	GI50 [7]	GI50 [8]	GI50 [9]	GI50 [10]	GI50 [11]	GI50 [12]	GI50 [13]	GI50 [14]	GI50 [15]	GI50 [16]	GI50 [17]	GI50 [18]	GI50 [19]	GI50 [20]
COc1ccc(C[C@@H]2NC[C@@H](O)[C@@H]2OC(C)=O)cc1	0.0219 µM (active)	0.0316 µM (active)	0.0329 µM (active)	0.0251 µM (active)	0.00899 µM (active)	0.00618 µM (active)	0.0284 µM (active)	0.0435 µM (active)	0.027 µM (active)	0.0358 µM (active)	0.021 µM (active)	0.0001 µM (active)	0.00957 µM (active)	0.0296 µM (active)	0.0232 µM (active)	0.0132 µM (active)	0.0164 µM (active)	0.0228 µM (active)	0.015 µM (active)	0.0247 µM (active)
CC(=O)O[C@H]1C(=O)[C@@]2(C)[C@H]([C@H](OC(=O)c3ccoc3)[C@]3(O)C[C@H](OC(=O)[C@H](O)[C@@H](NC(=O)c4ccccc4)c4ccccc4)C(C)=C1C3(C)C)[C@]1(OC(C)=O)CO[C@@H]1C[C@@H]2O	0.38 µM (active)	0.115 µM (active)	0.615 µM (active)	8.18 µM (inactive)	0.0566 µM (active)	> 12.5 µM (inactive)	0.0249 µM (active)	0.0962 µM (active)	0.0344 µM (active)	0.11 µM (active)	> 12.5 µM (inactive)	> 10.9 µM (inactive)	> 12.5 µM (inactive)	0.00904 µM (active)	0.0583 µM (active)	0.141 µM (active)	0.026 µM (active)	0.538 µM (active)	0.053 µM (active)	> 8.91 µM (inactive)
O=C(Nc1ccccc1)N(CCN(Cc1ccccc1)C(=O)Nc1ccccc1)CCN(Nc1ccccc1)C(=O)Nc1ccccc1	> 100 µM (inactive)	> 100 µM (inactive)	> 100 µM (inactive)	> 100 µM (inactive)	> 100 µM (inactive)	> 100 µM (inactive)	> 100 µM (inactive)	> 100 µM (inactive)	> 100 µM (inactive)	> 100 µM (inactive)	> 100 µM (inactive)	> 100 µM (inactive)	> 100 µM (inactive)	> 100 µM (inactive)	> 100 µM (inactive)	> 100 µM (inactive)	> 100 µM (inactive)	> 100 µM (inactive)	> 100 µM (inactive)	> 100 µM (inactive)
CN1C(=O)N/C(=C\c2ccc(S(=O)(=O)N/N=C\C(O)C(O)C(O)CO)cc2)C1=O (centres undefined)	> 100 µM (inactive)	> 100 µM (inactive)	> 100 µM (inactive)	> 100 µM (inactive)	> 100 µM (inactive)	> 100 µM (inactive)	> 100 µM (inactive)	> 100 µM (inactive)	> 100 µM (inactive)	> 10 µM (inactive)	> 100 µM (inactive)	> 100 µM (inactive)	> 100 µM (inactive)	> 100 µM (inactive)	> 100 µM (inactive)	> 100 µM (inactive)	> 100 µM (inactive)	> 100 µM (inactive)	> 100 µM (inactive)	> 100 µM (inactive)
c1cc(-c2ccc(Oc3ccc(-c4ccncc4)cc3)cc2)ccn1	6.81 µM (inactive)	4.91 µM (inactive)	5.07 µM (inactive)	3.22 µM (inactive)	4.73 µM (inactive)	14.1 µM (inactive)	12.8 µM (inactive)	7.4 µM (inactive)	5.22 µM (inactive)	27.6 µM (inactive)	3.18 µM (inactive)	3.01 µM (inactive)	5.47 µM (inactive)	1.67 µM (inactive)	22.6 µM (inactive)	15.9 µM (inactive)	3.15 µM (inactive)	4.91 µM (inactive)	7.18 µM (inactive)	7.21 µM (inactive)
CO[C@H](C)[C@](O)(C(=O)OCC1=CCN2CC[C@@H](O)[C@H]12)C(C)C	> 100 µM (inactive)	> 100 µM (inactive)	> 100 µM (inactive)	> 100 µM (inactive)	> 100 µM (inactive)	> 100 µM (inactive)	> 100 µM (inactive)	> 100 µM (inactive)	> 100 µM (inactive)	> 100 µM (inactive)	> 100 µM (inactive)	> 100 µM (inactive)	> 100 µM (inactive)	> 100 µM (inactive)	> 100 µM (inactive)	> 100 µM (inactive)	> 100 µM (inactive)	> 100 µM (inactive)	> 100 µM (inactive)	> 100 µM (inactive)
O=C(c1c(Cl)cc(Cl)cc1Cl)N(Cc1cccnc1)C(=S)N(Cc1cccnc1)C(=O)c1c(Cl)cc(Cl)cc1Cl	2.26 µM (inactive)	32.1 µM (inactive)	2.98 µM (inactive)	5.32 µM (inactive)	5.56 µM (inactive)	3.25 µM (inactive)	23.9 µM (inactive)		2.97 µM (inactive)	19 µM (inactive)	8.67 µM (inactive)	11.4 µM (inactive)	2.19 µM (inactive)	1.27 µM (inactive)	6.97 µM (inactive)	5.35 µM (inactive)	6.56 µM (inactive)	7.26 µM (inactive)	15.1 µM (inactive)	5.47 µM (inactive)
